# Experiments:
# [1] = system: human fallopian tube epithelium; test: Fallopian epithelia cilia beating quantification; format: cell-based; details: 7 days culture; P4 added to E2
# Protocol: Human fallopian tissue was obtained from routine hysterectomies from women in their reproductive years (ages range from 26 to 50 years old) and who had not undergone exogenous hormonal treatment for at least three months prior to surgery. Informed consent was obtained from each patient and approval granted by the ethics committee of the Northwestern University. Human fallopian tissue was kept in the DMEM/F12 medium with 10% FBS on ice and processed within 24 hours. The tissue was washed with warm PBS solution two times before being transferred into warm dissection medium (Liebowitz 15 with 0.5% P/S and 10% FBS). After cleaning connective tissue from outside of the fallopian tissue, the fallopian tube was cut open and the inner epithelia layer was mechanically dissected using forceps. […]
# Fallopian epithelia layers were cultured in estradiol (E2) 1 nM, E2 1 nM+progesterone (P4) 10 nM, E2 0.1 nM+P4 50 nM or with solvent only negative control for 7 days. Cilia beating movies were acquired using an Andor Spinning Disk Confocal with 5 ms exposure time and 5 ms readout time. […] The Multiple Kymograph plugin for the NIH ImageJ software was used to quantify cilia beating frequency. In each movie, 8 clusters of cilia were picked for the cilia beating quantification.
# [2] = system: OVGP1 expression in human fallopian epithelium; test: OVGP1 immunoblot of cultured fallopian epithelium lysate; format: cell-based
# Protocol: Human fallopian tissue was obtained from routine hysterectomies from women in their reproductive years (ages range from 26 to 50 years old) and who had not undergone exogenous hormonal treatment for at least three months prior to surgery. Informed consent was obtained from each patient and approval granted by the ethics committee of the Northwestern University. Human fallopian tissue was kept in the DMEM/F12 medium with 10% FBS on ice and processed within 24 hours. The tissue was washed with warm PBS solution two times before being transferred into warm dissection medium (Liebowitz 15 with 0.5% P/S and 10% FBS). After cleaning connective tissue from outside of the fallopian tissue, the fallopian tube was cut open and the inner epithelia layer was mechanically dissected using forceps. […] Tissue was cultured on 0.4 μm pore Millicell inserts (PICM03050, EMD Millipore Co, Billerica, Mass., USA) twelve-well plates with culture medium in a 37° C. and 5% CO2 incubator. Estrogen (E2) and progesterone (P4) used in tissue culture experiments were purchased from Sigma (St. Louis, Mo.).
# Cultured human fallopian epithelia layers were homogenized with a minipestle in ice-cold lysis buffer (20 mM Tris-HCl, pH 8.0, 137 mM NaCl, 10% glycerol, 1% NP-40, 2 mM EDTA). Lysate normalized for protein content was loaded into NuPAGE 4-12% gradient Bis-Tris precast SDS-PAGE gels and transferred to a nitrocellulose membrane (Life Technologies, Carlsbad, Calif., USA). Blots were probed by polyclonal anti-OVGP1 antibody (LsBio, Cambridge, Mass.) overnight in 4° C. followed by anti-rabbit secondary antibody conjugated to horseradish peroxidase (Zymed, San Francisco, Calif.). Proteins were detected by ECL primer (GE HealthCare Life Sciences, Pittsburgh, Pa.) and exposed to X-ray film (Kodak, Rochester, N.Y.). The same blot was stripped using stripping buffer (Thermo Scientific, Hanover Park, Ill.) and re-probed with monoclonal anti-α-tubulin (Sigma, St. Louis, Mo.) followed by an anti-mouse secondary antibody conjugated to horseradish peroxidase. NIH ImageJ Imaging Software was used to quantify the density of western blot bands. Conditioned medium from fallopian epithelia cultures was collected and probed via western blot analysis using a polyclonal anti-hIGF1 antibody (abcam, Cambridge, Mass.). The blot was detected by the same method described above.
smiles,measurement,setting,value
"C[C@]12CC[C@@H]3c4ccc(O)cc4CC[C@H]3[C@@H]1CC[C@@H]2O [E2, estradiol]",cilia beating frequency (CBF),[1],significantly increased
same,OVGP1 expression in the fallopian lysate,"[2]; 7 days culture, P4 added to E2",induction
same,OVGP1 expression,"[2]; 28 days stepwise E2 and P4 treatment, P4 in the presence of E2",stimulated
